# Read-outs that look alike come from different tables or passages of the source.
# Assays:
# Assay in all cases: Cell proliferation assay (6 days, CellTiter-Glo)
# Assay type in all cases: cell-based
# BC-3 = conditions: Homo sapiens, 144 h, PEL, AIDS-BCBL, EZH2 D185H (HET), read-out: AVERAGE GROWTH IC50
# Source text: (§1) Thus, Example 22 and Table 6 better reflect the inhibition of HZH2 inhibitors on cell lines, e.g. the lymphoma cell lines. DLBCL cell lines were the most sensitive to EZH2 inhibition (FIG. 11a). […] Evaluation of GSK126 in additional lymphoma cell lines and extensive genomic and epigenomic characterization will be required to fully elucidate the determinants of sensitivity among lymphoma subtypes.
# (§2) Biochemical assays utilized the 5-member PRC2 complex (human Flag-EZH2, EED, SUZ12, AEBP2, RbAp48) containing either WT or mutant EZH2, [^3H-]SAM and the indicated peptide substrate; reactions were incubated for 30 minutes. Global histone modification levels were determined by ELISA or western blot methods using antibodies specific for total histone H3, H3K27me1, H3K27me2, or H3K27me3. Cell proliferation and Caspase-3/7 activity were assessed using CellTiter-Glo and Caspase-Glo 3/7 (Promega), respectively. Gene expression profiling was conducted using Affymetrix Human Genome U133 Plus 2.0 microarrays. Differentially-expressed probe sets were determined by fitting the data to a linear model using the limma statistical package (http://www.bioconductor.org) and carrying out pair-wise contrasts of treated versus control. Significant probe sets were filtered for detection (log2 signal threshold of 8), an average fold-change >2 or <−2, or >1.5 or <−1.5, where indicated, with p-values adjusted for multiple testing correction by FDR (Benjamini Hochberg)<0.1. H3K27me3 ChIP reads were aligned using Bowtie (56). H3K27me3 enrichment peaks were identified using SICER (57) with optimized parameters. A custom PERL script was utilized to quantify the average basal H3K27me3 ChIP-seq tag density across gene sets. All in vivo studies were conducted after review by the Institutional Animal Care and Use Committee at GSK and in accordance with the GSK Policy on the Care, Welfare and Treatment of Laboratory Animals. GSK126 and vehicle were administered to mice intraperitoneally. Two-tailed t-tests were conducted assuming two samples of equal variance.
# (§3) The optimal cell seeding was determined empirically for all cell lines by examining the growth of a wide range of seeding densities in a 384-well format to identify conditions that permitted proliferation for 6 days. […] Plates were incubated for 6 days at 37° C. in 5% CO2. Cells were then lysed with CellTiter-Glo (Promega) and chemiluminescent signal was detected with a TECAN Safire2 microplate reader. In addition, an untreated plate of cells was harvested at the time of compound addition (T0) to quantify the starting number of cells. CTG values obtained after the 6 day treatment were expressed as a percent of the T0 value and plotted against compound concentration.
# WSU-NHL = conditions: Homo sapiens, 144 h, FL, EZH2 D185H (HET), read-out: AVERAGE GROWTH IC50
# Source text: as §1, §2, §3
# NU-DUL-1 = conditions: Homo sapiens, 144 h, B-NHL, EZH2 WT, read-out: AVERAGE GROWTH IC50
# Source text: as §1, §2, §3
# U-2940 = conditions: Homo sapiens, 144 h, DLBCL, EZH2 WT, read-out: AVERAGE GROWTH IC50
# Source text: as §1, §2, §3
# HT = conditions: Homo sapiens, 144 h, DLBCL, EZH2 WT, read-out: AVERAGE GROWTH IC50
# Source text: as §1, §2, §3
# SU-DHL-5 = conditions: Homo sapiens, 144 h, DLBCL, EZH2 WT, read-out: AVERAGE GROWTH IC50
# Source text: as §1, §2, §3
# Jiyoye = conditions: Homo sapiens, 144 h
# Source text: as §1, §2, §3
# Toledo = conditions: Homo sapiens, 144 h, DLBCL, EZH2 WT, read-out: AVERAGE GROWTH IC50
# Source text: as §1, §2, §3
# BC-1 = conditions: Homo sapiens, BC1, 144 h, AIDS-BCBL, EZH2 WT, read-out: AVERAGE GROWTH IC50
# Source text: as §1, §2, §3
# RC-K8 = conditions: Homo sapiens, RCK8, 144 h, B-NHL, EZH2 D185H (HET), read-out: AVERAGE GROWTH IC50
# Source text: as §1, §2, §3
# CRO-AP2 = conditions: Homo sapiens, 144 h, PEL, AIDS-BCBL, EZH2 WT, read-out: AVERAGE GROWTH IC50
# Source text: as §1, §2, §3
# P3HR-1 = conditions: Homo sapiens, 144 h, BURKITT, EZH2 WT, read-out: AVERAGE GROWTH IC50
# Source text: as §1, §2, §3
# DB = conditions: Homo sapiens, 144 h, DLBCL, EZH2 Y641N (HET), read-out: AVERAGE GROWTH IC50
# Source text: as §1, §2, §3
# HS-SULTAN = conditions: Homo sapiens, 144 h, BURKITT, EZH2 WT, read-out: AVERAGE GROWTH IC50
# Source text: as §1, §2, §3
# HD-MY-Z = conditions: Homo sapiens, 144 h, HODGKIN'S, EZH2 WT, read-out: AVERAGE GROWTH IC50
# Source text: as §1, §2, §3
# U-2932 = conditions: Homo sapiens, U2932, 144 h, DLBCL, EZH2 WT, read-out: AVERAGE GROWTH IC50
# Source text: as §1, §2, §3
# WSU-DLCL2 = conditions: Homo sapiens, WSUDLCL2, 144 h, DLBCL, EZH2 Y641F (HET), read-out: AVERAGE GROWTH IC50
# Source text: as §1, §2, §3
# RL = conditions: Homo sapiens, 144 h, DLBCL, EZH2 Y641N, D185H (HET), read-out: AVERAGE GROWTH IC50
# Source text: as §1, §2, §3
# KARPAS-1106P = conditions: Homo sapiens, 144 h, MLBCL, EZH2 E744A (HET), read-out: AVERAGE GROWTH IC50
# Source text: as §1, §2, §3
compound,measurement,setting,value
CC[C@H](C)n1cc(C)c2c(C(=O)NCc3c(C)cc(C)[nH]c3=O)cc(-c3ccc(N4CCNCC4)nc3)cc21 [GSK126],IC50,BC-3,2.22 µM
same,IC50,WSU-NHL,3.54 µM
same,IC50,NU-DUL-1,17.1 µM
same,IC50,U-2940,4.56 µM
same,IC50,HT,0.516 µM
same,IC50,SU-DHL-5,2.3 µM
same,IC50,"Jiyoye; JIYOYE, BURKITT, EZH2 WT, read-out: AVERAGE GROWTH IC50",0.232 µM
same,IC50,"Jiyoye; Jiyoye, BL cell line with WT EZH2, read-out: growth IC50",0.23 µM
same,IC50,Toledo,13.8 µM
same,IC50,BC-1,8.29 µM
same,IC50,RC-K8,4.53 µM
same,IC50,CRO-AP2,1.64 µM
same,IC50,P3HR-1,3.21 µM
same,IC50,DB,0.861 µM
same,IC50,HS-SULTAN,2.27 µM
same,IC50,HD-MY-Z,10.7 µM
same,IC50,U-2932,2.94 µM
same,IC50,WSU-DLCL2,0.134 µM
same,IC50,RL,4.73 µM
same,IC50,KARPAS-1106P,4.54 µM
